Patent US11903998B2, “Compositions and methods of treating cancer using lipid agonists and receptors thereof” (Forsyth Dental Infirmary for Children, priority 2016, dated 2024)
Where two headings read alike, the source gives them in different places.

Key:
[1] = test system: lung cancer; assay: LXA4 and xenograft model of lung cancer; assay type: in vivo
[2] = test system: COX-2; assay: COX-2 expression, LXA4 xenograft model of lung cancer; assay type: in vivo; details: LXA4-treatment group
[3] = test system: LA-P0297 lung cancer cells; assay type: in vivo, mice; details: for No tumor / Tumor developed (number of mice): total 6; for No tumor / Tumor developed (number of mice) / Necrosis: RvE1 pre-treatment; for Necrosis: cell wraps: Started on 18th day
Text: ERV1-transgenic mice (Tg) were engineered as previously described (Gao et al., 2013). In brief, the full-length of hCD11b promoter cDNA was cloned upstream of the full-length chemR23 cDNA (GenBank accession: www.ncbi.nlm.nih.gov/nuccore/NM_004072). For genotyping, genomic DNA was collected from ear punch biopsies of mice and screened by PCR with primers directed to mouse ERV1 (forward primer 5′-CTCGGTCTCCTAGGCAAC-3′) and human ERV1 (forward primer 5′-GTCTTCCTCCCAATCCAT-3′). The mouse and human ERV1 amplicons share the same reverse primer (5′-TAGAAAGCCAGGACCCAG-3′). FVB Wild type female mice (Wt) were purchased from Jackson Laboratories (Bar Harbor, ME). All animals were housed under specific pathogen-free conditions, received standard laboratory chow diet and water ad libitum. All animal experiments were approved by the Institutional Animal Care and Use Committee (IACUC) at the Forsyth Institute and were performed in conformance to the standards of the Public Health Service Policy on Humane Care and Use of Laboratory Animals. The animals were acclimatized before being used in the experimental study.
After one week of acclimatization, all animals received an injection of 1×10^6 LA-P0297 lung cancer cells subcutaneous in the right flank. Both Wt (n=18) and Tg (n=18) animals were randomly divided into 3 experimental groups: un-treated controls; 100 ng of RvE1 diluted in PBS injected intraperitoneal daily for the first 6 days and weekly thereafter for 3 weeks; vehicle, which was 5% ethanol diluted in PBS. RvE1 was stored in 100% ethanol and diluted in PBS immediately before use. RvE1 and vehicle were administered 30 minutes before the injection of cancer cells. Animals were checked routinely for body weight and growth of tumors on the skin. Tumor volume was measured using a Vernier caliper (Mitutoyo, Japan) and calculated using the following formula: V=½(L×W^2) where L=length and W=width. After 28 days, the animals were euthanized by CO2 asphyxia; tumor tissues were collected and stored for histological and molecular analyses.

[4] = test system: LA-P0297 lung cancer cells; assay: Histological analysis of tumor tissue (hematoxylin and eosin); assay type: in vivo, mice
Text: To examine the microscopic alterations in the tumor tissue, tissues were fixed in 10% formalin, paraffin embedded, sectioned (5 μm) and stained with hematoxylin and eosin. Images were photographed and enlarged for evaluation.

[5] = test system: Ki67; assay: Immunohistochemistry of tumor tissue, proliferation marker; assay type: in vivo, mice
Description: (§1) In order to identify tumor cell proliferation and angiogenesis markers, the expression of Ki67 as a marker of proliferation and CD31, CD34 and VEGF as markers of vascularization was analyzed by immunohistochemistry. Briefly, 5 μm thick sections were de-paraffinized and rehydrated with serial alcohol solutions. Antigen retrieval was performed by incubating the sections in 10 mM sodium citrate (pH 6.0) in a microwave oven first for 5 min at 720 W, then 3 min at 450 W and finally 2 min at 180 W. Endogenous peroxidase activity was quenched by incubating the slides with 3% H2O2 (in methanol) for 20 minutes at 4° C. followed by blocking with 2% BSA for 30 minutes at room temperature. The sections were then incubated with antibodies to Ki67, CD31, CD34 and VEGF (1:100 dilution) overnight at 4° C. in a humidified chamber. Sections were incubated with ABC reagent VACTASTAIN Elite ABC Standard Kit (PK-6100). The immune reactions were visualized using 3,3-diaminobenzidine tetra hydrochloride (DAB). DAB-stained slides were counterstained lightly with hematoxylin. Slides were dehydrated and mounted with Permount for analysis. Images were acquired and analyzed using the Nikon Eclipse 80i microscope (Japan) and Northern Eclipse imaging Elements-D (NIS-D) software. The results are expressed as percent of total positive cells.

[6] = test system: CD31; assay: Immunohistochemistry of tumor tissue, vascularization marker CD31; assay type: in vivo; details: both Wt and Tg mice vs respective controls and vehicle groups
Description: as §1

[7] = test system: CD34; assay: Immunohistochemistry of tumor tissue, vascularization marker CD34; assay type: in vivo, mice
Description: as §1

[8] = test system: IL-1α; assay: Multiplex bead array cytokine level in tumor tissue; assay type: in vivo; details: Wt mice, RvE1 pre-treatment, mean ± SEM
[9] = test system: IL-12; assay: as above; assay type: in vivo; details: Wt mice, RvE1 pre-treatment, mean ± SEM
Description: (§2) Inflammation is driven by soluble factors that are produced by tumor cells and by the cells recruited to the tumor microenvironment. […] Cytokine levels were measured using a multiplex bead array assay kit for Luminex purchased from Millipore to measure the following cytokines: G-CSF, IL-10, IL-6, IL-8, IL-12, TNF □, as per the manufacturer's instructions using a Luminex 100 instrument. Appropriate dilutions of the samples in assay diluent were made as required. Each sample was assayed in duplicate and cytokine standards supplied by the manufacturer were used to calculate the concentrations in the samples. Cytokine levels are expressed in pg/ml.

[10] = test system: IL-6; assay: as above; assay type: in vivo; details: Wt mice, RvE1 pre-treatment, mean ± SEM
Description: as §2

[11] = test system: G-CSF; assay: as above; assay type: in vivo, mice; details: RvE1 pre-treatment, mean ± SEM
Description: as §2

[12] = test system: IL-8; assay: as above; assay type: in vivo, mice; details: RvE1 pre-treatment, mean ± SEM
Description: as §2

[13] = test system: TNF-α; assay: as above; assay type: in vivo, mice; details: RvE1 pre-treatment, mean ± SEM
Description: as §2

[14] = test system: Ang1; assay: Quantitative mRNA expression in tumor tissue (qPCR); assay type: in vivo, mice; details: p<0.001
Description: (§3) In order to analyze the impact of RvE1 on inflammation and angiogenesis, the expression of NF-κB, COX-2, VEGF, Ang-1 and Ang-2 was examined by quantitative real-time PCR. Total cellular RNA was extracted from tumor tissue (stored in RNAlater solution) using TriZol reagent. Quantification of RNA was determined using NanoDrop 1000 (Thermo Fisher Scientific, Wilmington, DE). RNA samples were stored at −80° C. until use. The first-strand cDNA was synthesized with High Capacity cDNA Archive kit (Applied Biosystems, Foster City, CA, USA) according to the manufacturer's instructions. For quantitative RT-PCR analysis, oligonucleotides for NF-κB, COX-2, VEGF, Ang-1, Ang-2 and GAPDH were chosen from predesigned assays. Thermal cycling included initial steps at 50° C. for 2 min and at 95° C. for 10 min, followed by 40 cycles at 95° C. for 15 s and at 60° C. for 1 min. The fluorescence of the double-stranded products was monitored in real time. The cDNA was amplified and quantified using Sequence Detection System (SDS) 7000 (Applied Biosystems). The 2^(ΔΔCt) (Ct value of target gene minus Ct value of housekeeping gene) method was used to calculate relative quantity fold-change. GAPDH was used as the housekeeping gene. The data is from 3 independent experiments performed in triplicate.

[15] = test system: COX-2; assay: as above; assay type: in vivo, mice; details: p<0.001
Description: as §3

[16] = test system: NF-κB; assay: as above; assay type: in vivo, mice; details: p<0.001
Description: as §3

[17] = test system: VEGF; assay: VEGF expression in tumor tissue (immunohistochemistry and PCR); assay type: in vivo, mice; details: p<0.001
Description: as §1
In order to analyze the impact of RvE1 on inflammation and angiogenesis, the expression of NF-κB, COX-2, VEGF, Ang-1 and Ang-2 was examined by quantitative real-time PCR. […] Quantification of RNA was determined using NanoDrop 1000 (Thermo Fisher Scientific, Wilmington, DE). […] For quantitative RT-PCR analysis, oligonucleotides for NF-κB, COX-2, VEGF, Ang-1, Ang-2 and GAPDH were chosen from predesigned assays. […] The fluorescence of the double-stranded products was monitored in real time. The cDNA was amplified and quantified using Sequence Detection System (SDS) 7000 (Applied Biosystems). The 2^(ΔΔCt) (Ct value of target gene minus Ct value of housekeeping gene) method was used to calculate relative quantity fold-change. […]

[18] = test system: Ang2; assay: Quantitative mRNA expression in tumor tissue (qPCR); assay type: in vivo; details: both Wt and Tg mice vs controls and vehicle groups, p<0.001
Description: as §3

[19] = test system: lung cancer; assay: Orthotopic model of lung cancer, RvE1; assay type: in vivo
[20] = test system: COX2; assay: COX2 expression, orthotopic model of lung cancer; assay type: in vivo
[21] = test system: COX-2; assay: COX-2 expression, RvE1 and cisplatin xenograft model; assay type: in vivo, mice
[22] = test system: NF-κB; assay: NF-κB expression, RvE1 and cisplatin xenograft model; assay type: in vivo, mice
[23] = test system: lung cancer; details: mouse, in vivo
[24] = test system: lung cancer; assay: RvE1 and cisplatin in xenograft model of lung cancer
[25] = Tg mice vs control and vehicle animals
[26] = Wt mice vs control and vehicle animals
[27] = RvE1 added to cisplatin, WT and TG animals
[28] = cisplatin, WT and TG mice, p<0.001

CCCCC[C@H](O)/C=C/C=C\C=C\C=C\[C@@H](O)[C@@H](O)CCCC(=O)O [LXA4, lipoxin A4]
Necrosis, center of the tumor tissue ([1]; LXA4-treated group vs WT-vehicle control, 4 weeks): highly necrotic | Inflammatory infiltration ([1]; LXA4 group vs vehicle): no sign of inflammatory infiltration | Tumor volume ([1]; LXA4 vs vehicle group over 4 weeks): reduced the tumor volume significantly | Body weight ([1]; LXA4 vs vehicle, 4 weeks): No change | COX-2 expression [2]: significantly decreased

CC[C@@H](O)/C=C/C=C\C[C@@H](O)/C=C/C=C/C=C\[C@@H](O)CCCC(=O)O [RvE1, Resolvin E1]
Necrosis seen on the surface of tumors, from day ([3]; RvE1 treated groups): 19 days | No tumor ([3]; Tg mice): 3 | Tumor developed (number of mice) ([3]; Tg mice): 3 | Necrosis ([3]; Tg mice): Started | No tumor ([3]; Wt mice): Weak | Tumor developed (number of mice) ([3]; Wt mice): 4 | Necrosis ([3]; Wt mice): Started | Tumor size ([3]; both Wt and Tg animals vs vehicle and control groups, p<0.001): reduced significantly | Body weight ([3]; mouse, in vivo): no significant difference | Signs of toxicity (behavioral changes; eating, drinking habits and movement) ([3]; mouse, in vivo): None of the animals exhibited any signs of toxicity | Tumor appearance ([3]; vs tumors of animals not treated with RvE1 (solid and rigid)): very soft and pulpous | Microscopic alterations of tumor tissue ([4]; RvE1-treated Wt and Tg animals): extensive necrosis | Necrosis, RvE1 treated Tg mice compared to Wt mice ([4]; Tg vs Wt): more prominent | Reduction in the expression of Ki67, RvE1 treated Tg mice compared to Wt mice treated with RvE1 ([5]; Tg vs Wt): significantly (p<0.01) higher | Ki67-positive cells ([5]; both Wt and Tg groups vs vehicle and control groups): significant (p<0.001) reduction | CD31 positive cells [6]: significantly (p<0.001) reduced | CD34 positive cells ([7]; both Wt and Tg mice vs respective controls and vehicle groups): significantly (p<0.001) reduced | Reduction of CD34 expression in tumor tissues, Tg animals vs Wt animals ([7]; p<0.01): significantly more | IL-1α level in tumor tissue [8]: 177.94 ± 15.7 pg/mL | IL-12 level in tumor tissue [9]: 46.73 ± 4.7 pg/mL | IL-6 level in tumor tissue [10]: 52.06 pg/mL | G-CSF level in tumor tissue ([11]; Tg mice): 1156.31 pg/mL | G-CSF level in tumor tissue ([11]; Wt mice): 1624.28 ± 170.8 pg/mL | IL-8 level in tumor tissue ([12]; Tg mice): 692.61 pg/mL | IL-8 level in tumor tissue ([12]; Wt mice): 2629.41 ± 263.3 pg/mL | TNF-α level in tumor tissue ([13]; Tg mice): 10.06 ± 2.1 ^¥¥ pg/ml | TNF-α level in tumor tissue ([13]; Wt mice): 13.23 pg/mL | Ang1 expression ([14]; both Wt and Tg mice vs controls and vehicle groups): significantly decreased | Decrease in Ang1 expression, Tg mice compared to Wt animals [14]: more significant | COX-2 mRNA decrease ([15]; Tg mice vs controls and vehicle groups): 8 fold | COX-2 mRNA decrease ([15]; Wt mice vs controls and vehicle groups): 6 fold | NF-κB expression reduction [16, 25]: 7.6 fold | NF-κB expression reduction [16, 26]: 4 fold | VEGF expression reduction [17, 25]: 7 fold | VEGF expression reduction [17, 26]: 5 fold | Decrease of VEGF expression, Tg mice compared to Wt mice treated with RvE1 [17]: more significant | Ang2 expression [18]: significantly decreased | Histological findings in lungs ([19]; RvE1 vs control groups): decreased tumor density, vascularization, and inflammatory infiltration with increased necrosis | Number of nodules in the lung over 2 weeks ([19]; TG+RvE1 (TG control 8-10)): 3-5 nodules | Survival over 2 weeks ([19]; TG+RvE1 (TG control 25%)): 80% | Number of nodules in the lung over 2 weeks ([19]; WT+RvE1 (WT control 8-10)): 4-6 nodules | Survival over 2 weeks ([19]; WT+RvE1 (WT control 25%)): 40% | Reduction of the expression of COX2 ([20]; both groups (WT and TG)): 6 fold | Reduction of expression (printed in the COX2 sentence) ([20]; only in the TG animals): 6-7 fold | Suppression (reduction) of COX-2 expression compared to cisplatin alone [21, 27]: increased the suppression | Suppression (reduction) of NF-κB expression compared to cisplatin alone [22, 27]: increased the suppression | Signs of toxicity (behavioral changes; eating, drinking habits and movement) [23]: None of the animals exhibited any signs of toxicity | Tumor volume compared to cisplatin alone ([24]; RvE1 added to cisplatin, both WT and TG animals, p<0.001): significantly and further reduced | Tumor volume compared to the non-treated and WT groups ([24]; TG animals treated with cisplatin and additional RvE1): markedly reduced tumor volume

N.N.[Cl][Pt][Cl] [cisplatin]
COX-2 expression [21, 28]: reduced | NF-κB expression [22, 28]: reduced | Tumor volume ([24]; cisplatin): reduced tumor volume | Decrease of tumor growth compared to control groups ([24]; cisplatin, both WT and TG groups): more than 10 fold | Body weight ([24]; cisplatin-alone group): lost weight after the first 2 weeks
